These results are taken from ChEMBL document CHEMBL1129132, “8-amino-6-(arylsulphonyl)-5-nitroquinolines: novel nonpeptide neuropeptide Y1 receptor antagonists” (Bioorg Med Chem Lett, 1996).

In one experiment the target is T1, Neuropeptide Y receptor type 1 (Homo sapiens, UniProt P25929).
T1 sequence (P25929 whole entry): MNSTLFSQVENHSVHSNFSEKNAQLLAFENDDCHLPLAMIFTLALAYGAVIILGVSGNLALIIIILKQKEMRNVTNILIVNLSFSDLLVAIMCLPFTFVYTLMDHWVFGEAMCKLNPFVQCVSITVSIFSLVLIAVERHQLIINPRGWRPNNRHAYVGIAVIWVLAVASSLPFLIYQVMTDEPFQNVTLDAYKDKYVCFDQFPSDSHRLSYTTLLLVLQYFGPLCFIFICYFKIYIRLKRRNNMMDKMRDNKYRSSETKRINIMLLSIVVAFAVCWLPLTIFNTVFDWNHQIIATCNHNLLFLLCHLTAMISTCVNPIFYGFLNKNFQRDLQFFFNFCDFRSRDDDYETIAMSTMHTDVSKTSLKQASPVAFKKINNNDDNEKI
Briefly: Compound was tested for binding affinity against neuropeptide Y1 (NPY1) receptor from SK-N-MC membranes using [125I]PYY as radioligand.
Turning to `Nc1ccc(Sc2cc(N)c3ncccc3c2[N+](=O)[O-])cc1`, the Ki (commonly a measure of affinity in units of concentration, obtained from inhibition or displacement) is more than 10 µM.
Same read-out and setting: the value for `Nc1ccc(S(=O)(=O)c2cc(N)c3ncccc3c2N)cc1` was more than 10 µM; that for `CNc1cc(S(=O)(=O)c2ccccc2)c([N+](=O)[O-])c2cccnc12` was more than 10 µM; that for `Nc1ccc(S(=O)(=O)c2cc(N)c3ncccc3c2)cc1` was more than 10 µM.
Turning to `Cc1cc(S(=O)(=O)c2ccccc2)c([N+](=O)[O-])c2cccnc12`, the Ki is more than 10 µM.
The compound `Nc1ccc(S(=O)(=O)c2ccc3ncccc3c2[N+](=O)[O-])cc1` showed a Ki of more than 10 µM.
In turn, `CS(=O)(=O)c1cc(N)c2ncccc2c1[N+](=O)[O-]` displayed a Ki of more than 10 µM.
In turn, `Nc1ccc([S+]([O-])c2cc(N)c3ncccc3c2[N+](=O)[O-])cc1` (configuration not stated) displayed an inhibitory constant (Ki) of 1.25 µM. This counts as single-digit micromolar.
In turn, `Nc1ccc(S(=O)(=O)c2cc(N)c3ncccc3c2[N+](=O)[O-])cc1` yielded a Ki of 0.282 µM.
The compound `Nc1cc(NS(=O)(=O)c2ccccc2)c([N+](=O)[O-])c2cccnc12` yielded a Ki of more than 10 µM.

The target of a further experiment is T2, Neuropeptide Y receptor type 2 (Rattus norvegicus, UniProt Q9ERC0).
T2 sequence (Q9ERC0 whole entry): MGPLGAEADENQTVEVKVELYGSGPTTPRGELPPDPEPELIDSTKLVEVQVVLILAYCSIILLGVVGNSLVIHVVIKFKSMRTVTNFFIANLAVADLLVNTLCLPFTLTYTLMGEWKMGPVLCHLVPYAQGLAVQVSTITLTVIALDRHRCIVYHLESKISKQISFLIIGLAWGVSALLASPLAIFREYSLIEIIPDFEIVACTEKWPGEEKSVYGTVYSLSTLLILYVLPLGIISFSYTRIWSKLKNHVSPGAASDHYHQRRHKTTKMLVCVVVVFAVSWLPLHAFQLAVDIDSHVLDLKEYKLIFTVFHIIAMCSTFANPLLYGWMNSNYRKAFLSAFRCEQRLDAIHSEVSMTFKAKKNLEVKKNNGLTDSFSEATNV
Briefly: Compound was tested for binding affinity against neuropeptide Y2 (NPY2) receptor from rat hippocampi. The class given is tissue-based, Hippocampus.
As to `Nc1ccc(S(=O)(=O)c2cc(N)c3ncccc3c2[N+](=O)[O-])cc1`, the inhibitory constant (Ki) is more than 10 µM.
As to `CC(C)c1ccccc1S(=O)(=O)c1cc(N)c2ncccc2c1[N+](=O)[O-]`, the 50% inhibitory concentration (IC50) (usually the concentration at which inhibition is half-maximal) stood at 10 µM. This counts as double-digit micromolar.
